Key:
[1] = refractive index (Na D-line) (dimensionless); conditions: 101.33 kPa, Liquid, Standard Abbe refractometry
[2] = for speed of sound / mass density / viscosity: 101.33 kPa, Liquid; for speed of sound: VIBRATING TUBE DENSIMETER; for mass density: Vibrating tube method; for surface tension liquid-gas: Ring tensiometer; for viscosity: Capillary tube (Ostwald / Ubbelohde) method

CCCCn1cc[n+](C)c1.F[P-](F)(F)(F)(F)F [1-butyl-3-methylimidazolium hexafluorophosphate]
Conditions	mass density, [2] [kg/m3]	refractive index, [1]	speed of sound, [2] [m/s]	surface tension liquid-gas, [2] [mN/m]	viscosity, [2] [mPa·s]
278.15 K	1384.36	–	1492.5	–	–
283.15 K	1380.1	1.41332	1480.8	–	–
288.15 K	1375.83	1.41198	1468.2	43.7	–
293.15 K	1371.56	1.41069	1455.3	43.2	340.49
298.15 K	1367.3	1.40937	1442.8	42.9	247.06
303.15 K	1363.03	1.40808	1430.6	42.6	184.23
308.15 K	1358.76	1.40674	1419	42.2	140.57
313.15 K	1354.53	1.40543	1406.4	41.8	108.9
318.15 K	1350.32	1.40411	1394.9	–	85.9
323.15 K	1346.12	1.40282	1383.5	–	68.79
328.15 K	1341.97	1.40151	1372.2	–	–
333.15 K	1337.83	1.40024	1360.9	–	–
338.15 K	1333.7	1.39896	1349.2	–	–
343.15 K	1329.61	1.39771	1337.2	–	–

CCCCCCn1cc[n+](C)c1.F[P-](F)(F)(F)(F)F [1-hexyl-3-methylimidazolium hexafluorophosphate]
[2]
Conditions	speed of sound [m/s]	surface tension liquid-gas [mN/m]	viscosity [mPa·s]
278.15 K	1490.7	–	–
283.15 K	1470.8	–	–
288.15 K	1453.6	–	–
293.15 K	1438.3	37.5	676.82
298.15 K	1424.2	37.1	475.66
303.15 K	1411	36.8	342.52
308.15 K	1398.5	36.5	252.69
313.15 K	1386.4	36.1	187.36
318.15 K	1374.6	–	143.58
323.15 K	1363	–	111.9
328.15 K	1351.7	–	–
333.15 K	1340.3	–	–
338.15 K	1329.3	–	–
343.15 K	1318.4	–	–

CCCCCCCC[n+]1ccn(C)c1.F[P-](F)(F)(F)(F)F [1-octyl-3-methylimidazolium hexafluorophosphate]
Conditions	mass density, [2] [kg/m3]	refractive index, [1]	speed of sound, [2] [m/s]	surface tension liquid-gas, [2] [mN/m]	viscosity, [2] [mPa·s]
278.15 K	1251.83	–	1481.6	–	–
283.15 K	1247.65	1.42716	1460	–	–
288.15 K	1243.43	1.42578	1440.8	–	–
293.15 K	1239.57	1.4244	1423.7	36.5	999.08
298.15 K	1235.72	1.42302	1407.8	36.2	690.6
303.15 K	1231.88	1.42165	1393	35.9	489.02
308.15 K	1228.04	1.42028	1378.9	35.6	355.31
313.15 K	1224.21	1.41887	1365.8	35.2	263.23
318.15 K	1220.37	1.41749	1353.2	–	196.23
323.15 K	1216.62	1.4161	1341	–	150.57
328.15 K	1212.92	1.41471	1329.1	–	–
333.15 K	1209.21	1.41334	1317.5	–	–
338.15 K	1205.51	1.41195	1305.8	–	–
343.15 K	1201.82	1.41056	1294.6	–	–

Reference: the NIST ThermoML archive (doi:10.1016/j.jct.2006.12.005)
